Like-named read-outs stand apart in the source and are kept apart here.
Tests used:
[1] = Extrapolation to human IV 2 compartmental PK parameters; conditions: estimated human iv, PPI 1501 by rat difference ratio, solution from literature oral PK
Excerpt: Both sets of rodent data were then extrapolated using published human FLU PK parameters to estimate the PK of FLU post IV administration of PPI 1501 or non-formulated FLU to humans.
Assuming the plasma PK profile of FLU mediated by IV PPI 1501 in the rat is translatable to human, i.e. that the same PK parameter difference ratios for FLU in PPI 1501 observed in the rat apply in humans, then the human IV PK parameters for FLU in PPI 1501 can be estimated. This may be achieved by simple multiplication of the difference ratios provided in Table 41 (last column) to again obtain the comparative human PK parameter values FLU in PPI 1501 versus those obtained from injection of the simple solution; such data may also be compared to data obtained by injecting humans with the prodrug FA (Table 42).
The human IV PK parameters of FLU in solution were estimated based on the oral PK parameters of FLU and its estimated oral bioavailability (project 1 report, Duan, 2015, Table 42, ref 3-8).

[2] = Literature IV PK of FLU solution in rats (Park and Kim; Knihinicki et al); format: in vivo; conditions: Park and Kim data fitted to 2 compartmental model
Excerpt: The fitted results obtained in the JRF study were then compared to those in the literature, generated after administering a non-micellar low concentration simple FLU solution IV to rats. This was undertaken to determine potential differences in FLU pharmacokinetics induced by the micellar formulation.
The results from the JRF study were then compared to literature values for FLU PK administered as an IV solution as generated by Park and Kim (1) and Knihinicki et al (2); the comparison is shown in Table 39.
For comparative purposes, the rat PK data for a FLU solution generated by Park and Kim (1) were also fitted to the 2 compartmental model (FIG. 22 and Table 41).

[3] = tested on: Human red blood cells (RBC); assay: In vitro haemolysis; format: cell-based; conditions: 5 mg/mL, 37° C., 60 min
Procedure: For example suspended RBCs isolated from whole human blood may be mixed with non-formulated cargo molecules or test formulations comprising the cargo molecule at a given final concentration with respect to the cargo molecule incubated at 37° C. for 60 minutes, and centrifuged to remove intact RBCs. […] Human red blood cells (RBC) were isolated by centrifugation from whole blood collected in vaccutainer containing EDTA. […] Freeze-dried formulations were reconstituted in water and then diluted to the desired concentrations with PBS.

[4] = FLU solution, rats, IV […], NCA, cited from earlier work
[5] = human iv FA, values from project 1 report; cited from earlier work

Q: Which CL [1] does the source give for `CC(C(=O)O)c1ccc(-c2ccccc2)c(F)c1` (stereo not drawn) [FLU, flurbiprofen] here?
A: 0.967 L/h

Q: What about the CL2 [1] of the same molecule?
A: 0.343 L/h

Q: And the “MRT (est. based on 2 compartment model)” value [1]?
A: 7.43 h

Q: And the V [1]?
A: 4.984 L

Q: And the V2 [1]?
A: 2.199 L

Q: What about the t1/2Alpha ([2]; IV […]) of the same molecule?
A: 5.4 min

Q: What about the t1/2Beta ([2]; IV […]) of the same molecule?
A: 2.73 h

Q: And the AUC(0-inf) ([2]; rat, plasma, IV 2.5 mg/kg)?
A: 51400 ng·h/mL

Q: And the AUC(0-t) ([2]; rat, plasma, IV 2.5 mg/kg)?
A: 45300 ng·h/mL

Q: And the C0 ([2]; rat, plasma, IV 2.5 mg/kg)?
A: 49800 ng/mL

Q: And the MRT ([2]; rat, plasma, IV 2.5 mg/kg)?
A: 3.57 h

Q: What about the clearance ([2]; rat, plasma, IV 2.5 mg/kg) of the same molecule?
A: 0.81 mL/min/kg

Q: What about the Vd ([2]; rat, plasma, IV 2.5 mg/kg, read-out: Vss) of the same molecule?
A: 0.174 L/kg

Q: What about the “absorbance at 540 nm” value [3] of the same molecule?
A: 0.54±0.03

Q: And the percent haemolysis ([3]; triplicate ± standard deviation)?
A: 92.1±17.2%

Q: And the Vss ([4]; Knihinicki et al)?
A: 0.22 L/kg

Q: And the Vz ([4]; Knihinicki et al)?
A: 0.239 L/kg

Q: What about the t1/2 ([4]; Knihinicki et al) of the same molecule?
A: 3.07 h

Q: What about the Vss ([4]; Park & Kim) of the same molecule?
A: 0.15678 L/kg

Q: What about the Vz ([4]; Park & Kim) of the same molecule?
A: 0.19231 L/kg

Q: What about the t1/2 ([4]; Park & Kim) of the same molecule?
A: 2.78 h

Q: What does the source list for flurbiprofen axetil [FA]?
A: CL [5]: 1.14 L/h; CL2 [5]: 4.40 L/h; Ka [5]: 58 h⁻¹; MRT (est. based on 2 compartment model) [5]: 7.36 h; V [5]: 5.11 L; V2 [5]: 3.28 L
